SMILES | melting point [°C]
CC1COc2c(N3CCC(NC(=O)OC(C)(C)C)C3)c(F)cc3c(=O)n(N)c(=O)n1c23 (configuration not stated) | 114 to 116
CC(=O)NN=C(c1ccccc1)c1cc(C(C)(C)C)c(O)c(C(C)(C)C)c1 | 205 to 206
c1ccc(Sc2ccc(-c3ccc(Sc4ccccc4)cc3)cc2)cc1 | 116 to 117
COC(=O)c1cc(N=Nc2ccc(S(=O)(=O)Nc3ccccn3)cc2)ccc1OC(C)=O | 204 to 207
COCOc1ccc(/C=C/C(=O)/C=C/c2ccc(OCOC)c(OCOC)c2)cc1OCOC | 86 to 88
C[C@@H](S[C@H]1CO[C@H](/C=C/C=C/c2ccc(OCC(F)(F)C(F)F)cc2)OC1)[C@](O)(Cn1cncn1)c1ccc(F)cc1F | 75 to 85
CS(=O)(=O)c1ccc(-n2nc(CO)cc2-c2ccc(-c3ccco3)cc2)cc1 | 176
CCCCCCc1ccc2c(c1)NC(NC(C)C)=NS2(=O)=O | 319 to 321
O=C(c1ccccc1Cl)c1cc2c(cc1NC=C[N+](=O)[O-])CCC2 | 225 to 226
CN(c1ccc(O)cc1)c1cc2ccc(Cl)cc2cn1 | 140
Fc1cccc(C2(N3CCC3)CCC3(CC2)NCCc2c3[nH]c3ccccc23)c1 (configuration not stated) | 186 to 188
CCOC(=O)Cc1cc(C)c(C(=O)c2ccc(C)cc2)n1C | 90 to 93
CN(C)CCS(=O)(=O)NC(=O)CCn1c2ccc(O)cc2c2c3c(c(-c4ccccc4Cl)cc21)C(=O)NC3=O | 229 to 233
CC(C)Cn1c(=O)n(C)c(=O)c2c(Sc3nccs3)c(C(=O)c3ccnc4ccccc34)sc21 | 167 to 168
O=c1[nH]c(=O)n(C2CC2)c2nc(S(=O)(O)=S)c(F)cc12 | 300 to 302
Cc1ncnc(-c2ccncc2)n1 | 99 to 102
CCCCCCCCCCCCc1nnn(C(C(=O)O)C(C)C)n1 (configuration not stated) | 39 to 42
OC(CCl)CNc1nc2ccnc(-c3cccc(C(F)(F)F)c3)n2n1 (configuration not stated) | 141 to 142
COc1cc2c(Nc3ccc(Sc4nccn4C)c(Cl)c3)c(C#N)cnc2cc1F | 295 to 297
COc1ccc(N2CCN(c3c(C)c(C)c4c(c3C)C(CN3CCCCC3)C(C)(C)O4)CC2)cc1 (configuration not stated) | 144 to 145
Cc1cc(Sc2ccc3nc(CCl)n(C)c3n2)cc(C)c1[N+](=O)[O-] | 133 to 135
C=CCNC(=O)c1ccccc1C(c1ccc(O)cc1)c1ccc(O)cc1 | 179 to 181
CCCOCCOc1ccc(COc2ccc3c(c2)C=C(C(=O)O)CCS3(=O)=O)cc1 | 244 to 250

The remaining lines, values ahead:

melting point [°C] | SMILES
216 to 218 | O=C1COc2ccc(C3=Nn4cnnc4SC3c3ccccn3)cc2N1 (configuration not stated)
163 to 165 | C#CCNC(=O)c1ccc2ccccc2c1
238 to 239 | Cc1nc(-c2ccccc2C(F)(F)F)c2c(n1)N(c1ccc(C(C)C)cc1Br)CC(=O)N2
204 to 205 | NS(=O)(=O)c1cc2c(cc1Cl)C(O)N(C1CCN(Cc3cccc(C(F)(F)F)c3)CC1)C2=O (configuration not stated)
154 | C[C@H](CN(O)C(N)=O)NC(=O)c1cccc(Oc2ccccc2)c1
196 to 198 | O=C1N(C(c2ccccc2)c2ccccc2)c2cccc(F)c2C12COc1cc3c(cc12)OCCO3 (configuration not stated)
153 to 154 | COc1ccc2c(=O)c(-c3ccccc3)c(SCc3ccccc3)oc2c1
167 to 168 | O=c1n(-c2ccccc2)nc2c3ccccc3nc(Cl)n12
135 to 137 | O=c1oc2ccccc2n1CCN1CCc2c([nH]c3ccccc23)C1
164 to 166 | CC(C)c1ccc2c(c1)c(Sc1ccccc1)c(CCC(C)(C)C(=O)O)n2Cc1ccc(Cl)cc1
182 to 184 | Cc1[nH]cnc1CSCCNc1[nH]cc(-c2ccccc2)c1[N+](=O)[O-]
92 to 94 | O=C(Cc1ccccc1)c1ccc[nH]1
43 to 48 | CC(Cc1ccccc1)CN(C)C1CCC(c2ccc3[nH]c(=O)oc3c2)CC1 (configuration not stated)
120 to 135 | Clc1ccc(CN2CCN=C2C(Cn2ccnc2)c2ccccc2)c(Cl)c1 (configuration not stated)
